Experimental data: patent publication US20200147039A1, “COMPOUNDS USEFUL IN INHIBITING HUMAN TREFOIL FACTOR 3” (NATIONAL UNIVERSITY OF SINGAPORE, priority 2017, published 2020)

system: MCF-7; assay: AlamarBlue cell viability assay, MCF7; assay type: cell-based, human; settings: Homo sapiens, MCF7, MCF-7, AlamarBlue cell viability (Table 8)
Description: (A) Inhibitory concentration 50% (IC50) values for compound 43 in the MC cell lines are tabulated, using an AlamarBlue™ cell viability assay as previously described in Pandey V et al., Breast Cancer Res. 2014; 16(5):429. (B) Measured dose-dependent manner effect of compound 43 on the viability of MC cells (left-side, TFF3-high and right, TFF3-low) using AlamarBlue™ viability assay as previously described (ibid). (C) Apoptotic cell death of mammary carcinoma cell lines measured after treatment with 10 μM compound 43 using flow cytometry analysis at 24 hour as described previously in Keerthy H K et al., PloS one. 2014; 9(9):e107118. Annexin V-FITC staining is indicated on the X-axis and PI staining on the Y-axis. […] Acquisition of Annexin V and PI data were represented as percentage (%) in each quadrant. Note: CM, conditioned media; MCF10A and MCF12A, non-transformed immortalized-mammary epithelial cell line. Points are mean of triplicate experiments; bars, ±SD. Statistical significance was assessed by using an unpaired two-tailed Student's t test (P<0.05 was considered as significant) using GraphPad Prism5. Columns are mean of triplicate experiments; bars, ±SD. **P<0.001, *P<0.05.
The human immortalized mammary epithelial cell lines, MCF10A, and MCF12A; and immortalized hepatocellular epithelial cell line, LO2 were obtained from the American Type Culture Collection (ATCC, Rockville, Md.) and were cultured as per ATCC propagation instructions. MC cell lines, MCF7, T47D, BT474, BT20, MDA-MB-361, MDA-MB-436, MDA-MB-468, and MDA-MB-231; endometrial carcinoma cell lines, Ishikawa, ECC1, RL95-2 and AN3; hepatocellular carcinoma cell lines, Hep3B, H2P, and H2M; colon carcinoma cell lines, DLD-1, and Caco-2; and prostate carcinoma cell lines, PC3, LNCaP, and DU145 were obtained from the American Type Culture Collection (ATCC, Rockville, Md.). Pancreatic carcinoma cell lines, AsPC-1 and BxPC-3; Lung carcinoma cell lines, HCC-827, NCI-H1975, HCC-4006, PC-14, and NCI-H1299; and Thyroid carcinoma cell lines HTH83, CAL62, T238, and OGK-M were obtained from Prof. H. Phillip Koeffler's laboratory at The Cancer Science Institute of Singapore, National University of Singapore (NUS). Gastric carcinoma cell lines, AGS, MKN-28, MKN-45, and A2-528 were obtained from Prof. Yoshiaki Ito's laboratory at The Cancer Science Institute of Singapore, NUS. All cell lines were cultured as per ATCC propagation instructions.
The above synthesised compounds were initially evaluated against a range of carcinoma cells using an AlamarBlue™ cell viability assay (using the protocol discussed above). The tested compounds were generally efficacious at reducing the viability of various carcinoma cells compared to vehicle (DMSO) treated cells. Table 8 provides selected IC50 data for certain of the compounds synthesised herein against MCF-7.
In table 9 IC50 values of compound 43 compound library in several cancer cell lines are tabulated, using an AlamarBlue® cell viability assay as previously described in Pandey V et al., Breast Cancer Res. 2014; 16(5):429. Statistical analysis was assessed by using GraphPad Prism5. Note: NV, no value.

`N#CC1=C(N)Oc2c(c(=O)oc3ccccc23)C1c1ccc(-c2cncnc2)cc1` (centres unmarked) [Compound 128] and `N#CC1=C(N)Oc2c(c(=O)oc3ccc(F)cc23)C1c1ccc(-c2cncnc2)cc1` (centres unmarked) [Compound 160] are within 1.5-fold of each other in IC50: 200 µM for the first, 253 µM for the second.

Going from `N#CC1=C(N)Oc2c(c(=O)oc3ccccc23)C1c1ccc(-c2cccnc2)cc1` (centres unmarked) [Compound 31] to `Cc1ccc(-c2ccc(C3C(C#N)=C(N)Oc4c3c(=O)oc3ccccc43)cc2)cn1` (centres unmarked) [Compound 124], the IC50 rises from 5.21 µM to 43.8 µM (8.4-fold). The first is the more potent here.

First: Cc1c(-c2ccc(C3C(C#N)=C(N)Oc4c3c(=O)oc3ccc(F)cc43)cc2)ccnc1F (centres unmarked) [Compound 149]
Second: COc1ccc2c3c(c(=O)oc2c1)C(c1ccc(-c2ccnc(F)c2C)cc1)C(C#N)=C(N)O3 (centres unmarked) [Compound 150]
The IC50 of the first is 39-fold higher: 43.3 µM for the first, 1.12 µM for the second. The second is the more potent here.

First: Cc1ccccc1-c1ccc(C2C(C#N)=C(N)Oc3c2c(=O)oc2ccc(F)cc32)cc1 (centres unmarked) [Compound 162]
Second: Cc1ccc(-c2ccc(C3C(C#N)=C(N)Oc4c3c(=O)oc3ccc(F)cc43)cc2)cn1 (centres unmarked) [Compound 152]
The IC50 of the first is 2.1-fold higher: 164 µM for the first, 77.6 µM for the second. The second is the more potent here.

Compared with `Cc1cc(-c2ccc(C3C(C#N)=C(N)Oc4c3c(=O)oc3ccccc43)cc2)cnc1Cl` (centres unmarked) [Compound 122], `Cc1cc(-c2ccc(C3C(C#N)=C(N)Oc4c3c(=O)oc3ccc(F)cc43)cc2)cnc1Cl` (centres unmarked) [Compound 147] is 140-fold lower in IC50: 73.9 µM for the first, 0.526 µM for the second.

First: COc1ccc(C2C(C#N)=C(NS(=O)(=O)c3ccc([N+](=O)[O-])cc3)Oc3c2c(=O)oc2ccccc32)cc1-c1cnc(F)c(C)c1 (centres unmarked) [Compound 112]
Second: Cc1cc(-c2ccc(C3C(C#N)=C(NC(=O)Cc4cccc(Cl)c4)Oc4c3c(=O)oc3ccccc43)cc2)cnc1F (centres unmarked) [Compound 98]
The IC50 of the first is 1.7-fold higher: 101 µM for the first, 58.3 µM for the second.

`N#CC1=C(N)Oc2c(c(=O)oc3ccccc23)C1c1ccc(-c2cccc3ccccc23)cc1F` (centres unmarked) [Compound 141] and `N#CC1=C(N)Oc2c(c(=O)oc3ccccc23)C1c1ccc(-c2ccc(C=O)o2)cc1F` (centres unmarked) [Compound 136] are within 1.5-fold of each other in IC50: 1.7 µM for the first, 1.67 µM for the second.

`COc1ccc2c3c(c(=O)oc2c1)C(c1ccc(-c2ccncc2)cc1)C(C#N)=C(N)O3` (centres unmarked) [Compound 146] and `COc1ccc2c3c(c(=O)oc2c1)C(c1ccc(-c2ccc(Cl)cc2)cc1)C(C#N)=C(N)O3` (centres unmarked) [Compound 154] are within 1.5-fold of each other in IC50: 7.04 µM for the first, 5.74 µM for the second.

Work on `N#CC1=C(N)Oc2c(c(=O)oc3ccccc23)C1c1ccc(-c2cn[nH]c2)cc1F` (centres unmarked) [Compound 142] yielded an IC50 of 15.5 µM.
